Values after ≈ are worked out from the molar mass of the structure shown. Where two headings read alike, the source gives them in different places.
Legend:
CHIKV nsP2 ATPase [1] = target: T1, CHIKV nsP2 ATPase (Chikungunya virus, UniProt Q8JUX6); assay: Secondary CHIKV nsP2 ATPase assay (ADP-Glo); conditions: for Hill slope: ADP-Glo dose response
CHIKV nsP2 ATPase [2] = target: T1, CHIKV nsP2 ATPase; assay: High throughput nsP2 ATPase activity assay (Malachite Green)
Kinetic solubility = conditions: kinetic from dmso stock
[3] = read-out: Malachite Green % INHIBITION (ORIGINAL)
[4] = read-out: Malachite Green % INHIBITION (RESCREEN)
[5] = read-out: ADP-Glo IC50, Avge n=2, 1 nM CHIKV nsP2fl, 30 μM ATP, 30 min pre-incubation

T1 sequence (Q8JUX6 536-1333): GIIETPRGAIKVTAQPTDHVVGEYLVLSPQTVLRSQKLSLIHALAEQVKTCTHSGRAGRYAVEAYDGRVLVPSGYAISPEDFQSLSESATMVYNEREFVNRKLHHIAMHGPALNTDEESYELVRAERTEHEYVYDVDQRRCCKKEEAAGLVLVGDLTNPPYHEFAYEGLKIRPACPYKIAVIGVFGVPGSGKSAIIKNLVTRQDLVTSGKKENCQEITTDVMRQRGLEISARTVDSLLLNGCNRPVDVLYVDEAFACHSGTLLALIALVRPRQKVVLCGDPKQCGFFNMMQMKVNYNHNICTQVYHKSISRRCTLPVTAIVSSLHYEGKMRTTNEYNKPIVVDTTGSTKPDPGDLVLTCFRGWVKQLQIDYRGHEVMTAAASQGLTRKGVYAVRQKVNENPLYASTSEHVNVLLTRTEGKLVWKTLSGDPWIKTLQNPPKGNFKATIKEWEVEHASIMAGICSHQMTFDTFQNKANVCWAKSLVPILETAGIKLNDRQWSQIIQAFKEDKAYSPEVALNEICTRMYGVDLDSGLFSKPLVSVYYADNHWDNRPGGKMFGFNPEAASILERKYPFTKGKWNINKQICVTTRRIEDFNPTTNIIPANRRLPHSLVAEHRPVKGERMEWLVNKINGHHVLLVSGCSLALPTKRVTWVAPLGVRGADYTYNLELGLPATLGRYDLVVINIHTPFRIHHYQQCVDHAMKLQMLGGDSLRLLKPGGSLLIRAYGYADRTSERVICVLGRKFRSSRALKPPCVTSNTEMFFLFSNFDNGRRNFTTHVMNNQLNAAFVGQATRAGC

Row | Compound | IC50 (CHIKV nsP2 ATPase [1]) | Hill slope (CHIKV nsP2 ATPase [1]; Avge n=2) | inhibition at 25 µM (CHIKV nsP2 ATPase [2]; [3]) | inhibition at 25 µM (CHIKV nsP2 ATPase [2]; [4]) | solubility kinetic (Kinetic solubility) | IC50 (CHIKV nsP2 ATPase [1]; [5]) | IC50 (CHIKV nsP2 ATPase [1]; read-out: ADP-Glo IC50, Avge n=2, 1 nM CHIKV nsP2fl, 30 μM ATP, 30 min pre-incubation, listed as 1798)
1 | Cc1nc(CC2CCOC3(CCN(C(=O)C4(c5ccccc5)CCCC4)CC3)C2)no1 (stereo not shown) [RA-0001823] | 1.5 µM | 0.87 | 78% | 82% | 202 µM (≈ 85.6 µg/mL) | – | –
2 | CSc1ccc(Cn2cccc2C2=NC(CSCc3ccc(F)cc3)CO2)cc1 (stereo not shown) [RA-0001812] | – | – | 48% | 53% | – | – | –
3 | O=C(C1CCCN(c2ccc(Sc3ccc(Br)cc3)nn2)C1)N1CCSCC1 (stereo not shown) [RA-0001816] | – | 1.2 | 67% | 71% | – | 7.2 µM | –
4 | Brc1ccc(-c2csc(N3CCc4ccccc4C3)n2)cc1 [RA-0001809] | – | – | 58% | 60% | – | – | –
5 | Cc1ccc(N2C(=O)/C(=C/C=C/c3ccco3)C(=O)NC2=S)cc1 [RA-0001799] | – | 2.8 | 85% | 64% | – | – | –
6 | COc1ccc(OC)c(N2C(=O)/C(=C/c3ccco3)C(=O)NC2=S)c1 [RA-0001798] | – | 1.4 | 79% | 74% | – | 3.8 µM | < 10 µM
7 | O=c1c(O)c(-c2ccc(O)c(O)c2)oc2cc(O)cc(O)c12 [RA-0001795] | 26.7 µM | 0.7 | 62% | 55% | – | – | –
8 | O=c1cc(-c2ccc(O)c(O)c2)oc2cc(O)cc(O)c12 [RA-0001820] | – | – | 60% | 62% | – | – | –
9 | Clc1ccccc1CSC1=NC2(CCCCC2)Nc2ccccc21 [RA-0001813] | – | – | 66% | 81% | – | – | –
10 | Cc1ccc(CSc2nsc(SCc3ccc(C)cc3)c2C#N)cc1 [RA-0001806] | – | – | 45% | 53% | – | – | –
11 | Cc1cccc(CSc2nsc(SCc3cccc(C)c3)c2C#N)c1 [RA-0001803] | – | – | 57% | 61% | – | – | –
12 | Cc1c(Cl)ccc2c1NC(C(=O)O)C1CC=CC21 (stereo not shown) [RA-0001808] | – | – | 63% | 69% | – | – | –
13 | O=C(CN1C(=O)C2C3CCC(C3)C2C1=O)OCC(=O)c1ccc(Cl)cc1 (stereo not shown) [RA-0001796] | 19.9 µM | 0.6 | 60% | 55% | – | – | –
14 | O=C1c2oc3ccccc3c(=O)c2C(c2ccc(O)cc2)N1Cc1ccccc1Cl (stereo not shown) [RA-0001802] | 14.8 µM | 1 | 37% | 51% | – | – | –
15 | N#Cc1c(SCc2ccccc2Cl)nsc1SCc1ccccc1Cl [RA-0001804] | – | 2.35 | 53% | 64% | – | – | –
16 | CN(Cc1ccco1)c1nc(-c2ccc(Cl)cc2)nc2ccccc12 [RA-0001817] | – | – | 49% | 56% | – | – | –
17 | Fc1cccc(Cl)c1Cn1cccc1C1=NC(CSCc2ccccc2)CO1 (stereo not shown) [RA-0001811] | – | – | 46% | 56% | – | – | –
18 | CS(=O)(=O)NCC1CCOC2(CCN(C(=O)C3(c4ccccc4)CCCC3)CC2)C1 (stereo not shown) [RA-0001822] | 2.3 µM | 0.85 | 84% | 81% | 236 µM (≈ 103 µg/mL) | – | –
19 | CC1SC2(C(=O)Nc3ccccc32)N(CCc2c[nH]c3ccccc23)C1=O (stereo not shown) [RA-0001810] | 27.5 µM | 2.65 | 58% | 76% | – | – | –
20 | Cc1ncc2c(n1)COC21CN(C(=O)C2(c3ccccc3)CCCC2)C1 [RA-0001824] | 5.6 µM | 0.43 | 79% | 69% | – | – | –
21 | Fc1cccc(CSC2=NC3(CCCCC3)Nc3ccccc32)c1 [RA-0001815] | – | – | 81% | 77% | – | – | –
22 | Cc1ccnc(OC2CCOC3(CCN(C(=O)C4(c5ccccc5)CCCC4)CC3)C2)c1 (stereo not shown) [RA-0001821] | – | 1.25 | 70% | 65% | 14.2 µM (≈ 6.17 µg/mL) | 4 µM | –
23 | Clc1cccc(CSC2=NC3(CCCCC3)Nc3ccccc32)c1 [RA-0001814] | – | – | 73% | 54% | – | – | –
24 | CCCC(C(=O)O)N1C(=O)/C(=C/c2ccc(-c3ccc(Br)cc3)o2)SC1=S (stereo not shown) [RA-0001801] | – | 1.4 | 62% | 55% | – | 12.8 µM | –
25 | N#Cc1c(SCc2cccc(F)c2)nsc1SCc1cccc(F)c1 [RA-0001805] | – | – | 33% | 51% | – | – | –
26 | O=C(CSc1nnc2c(=O)n(-c3cccc(F)c3)ccn12)c1c[nH]c2ccccc12 [RA-0001818] | – | – | 50% | 145% | – | – | –
27 | COc1cc(Cl)c(NS(=O)(=O)c2c(C)sc(C)c2-c2[nH]nc(C)c2C)c(OC)c1 [RA-0001819] | 0.6 µM | 0.7 | 66% | 72% | 12.5 µM (≈ 5.7 µg/mL) | – | –
28 | N#Cc1c(SCc2ccccc2)cc(SCc2ccccc2)cc1SCc1ccccc1 [RA-0001807] | – | 2 | 45% | 60% | – | – | –
